In the NIST ThermoML archive (doi:10.1021/je5009334):

Assay: xn = mol fraction of the nth substance listed
Details: 101 kPa, Liquid; for speed of sound: Sing-around technique in a fixed-path interferometer; for mass density: Vibrating tube method

CCC(O)CO (stereo not given) [1,2-butanediol] + OCc1ccccc1
Details	mass density [kg/m3]	speed of sound [m/s]
298.15 K, x2 = 0	998.492	1452.6
298.15 K, x2 = 0.1	1003.29	1460.7
298.15 K, x2 = 0.2	1007.97	1469.2
298.15 K, x2 = 0.3	1012.52	1477.2
298.15 K, x2 = 0.4	1016.95	1485.3
298.15 K, x2 = 0.5	1021.24	1493.2
298.15 K, x2 = 0.6	1025.4	1500.6
298.15 K, x2 = 0.7	1029.45	1507.6
298.15 K, x2 = 0.8	1033.41	1514
298.15 K, x2 = 0.9	1037.31	1519.9
303.15 K, x2 = 0	994.744	1438.2
303.15 K, x2 = 0.1	999.491	1445.9
303.15 K, x2 = 0.2	1004.13	1454.3
303.15 K, x2 = 0.3	1008.65	1462.1
303.15 K, x2 = 0.4	1013.06	1470.3
303.15 K, x2 = 0.5	1017.34	1478
303.15 K, x2 = 0.6	1021.49	1485.2
303.15 K, x2 = 0.7	1025.54	1491.7
303.15 K, x2 = 0.8	1029.5	1498
303.15 K, x2 = 0.9	1033.42	1503.9
308.15 K, x2 = 0	990.956	1423.6
308.15 K, x2 = 0.1	995.66	1431.2
308.15 K, x2 = 0.2	1000.26	1439.4
308.15 K, x2 = 0.3	1004.76	1446.8
308.15 K, x2 = 0.4	1009.14	1454.9
308.15 K, x2 = 0.5	1013.4	1462.5
308.15 K, x2 = 0.6	1017.55	1469.4
308.15 K, x2 = 0.7	1021.6	1476
308.15 K, x2 = 0.8	1025.58	1482.2
308.15 K, x2 = 0.9	1029.52	1488.1
313.15 K, x2 = 0	987.136	1409.2
313.15 K, x2 = 0.1	991.786	1416.7
313.15 K, x2 = 0.2	996.372	1424.4
313.15 K, x2 = 0.3	1000.84	1431.8
313.15 K, x2 = 0.4	1005.2	1439.7
313.15 K, x2 = 0.5	1009.46	1447.1
313.15 K, x2 = 0.6	1013.6	1453.9
313.15 K, x2 = 0.7	1017.66	1460.4
313.15 K, x2 = 0.8	1021.64	1466.6
313.15 K, x2 = 0.9	1025.6	1472.5
318.15 K, x2 = 0	983.284	1394.6
318.15 K, x2 = 0.1	987.894	1401.9
318.15 K, x2 = 0.2	992.45	1409.5
318.15 K, x2 = 0.3	996.891	1416.7
318.15 K, x2 = 0.4	1001.24	1424.3
318.15 K, x2 = 0.5	1005.48	1431.4
318.15 K, x2 = 0.6	1009.62	1438.2
318.15 K, x2 = 0.7	1013.68	1444.8
318.15 K, x2 = 0.8	1017.69	1451
318.15 K, x2 = 0.9	1021.67	1456.9
323.15 K, x2 = 0	979.394	1380
323.15 K, x2 = 0.1	983.969	1387.2
323.15 K, x2 = 0.2	988.488	1394.3
323.15 K, x2 = 0.3	992.923	1401.7
323.15 K, x2 = 0.4	997.257	1409.1
323.15 K, x2 = 0.5	1001.49	1416.2
323.15 K, x2 = 0.6	1005.63	1423.1
323.15 K, x2 = 0.7	1009.7	1429.5
323.15 K, x2 = 0.8	1013.72	1435.7
323.15 K, x2 = 0.9	1017.72	1441.6

CC(O)CCO (stereo not given) [1,3-butanediol] + CCC(O)CO
Details	mass density [kg/m3]	speed of sound [m/s]
298.15 K, x2 = 0	1001.82	1527.8
298.15 K, x2 = 0.1	1001.83	1523.2
298.15 K, x2 = 0.2	1001.78	1517.9
298.15 K, x2 = 0.3	1001.74	1512.7
298.15 K, x2 = 0.4	1001.61	1507.1
298.15 K, x2 = 0.5	1001.24	1498.9
298.15 K, x2 = 0.6	1000.94	1492.2
298.15 K, x2 = 0.7	1000.36	1482.6
298.15 K, x2 = 0.8	999.812	1473.2
298.15 K, x2 = 0.9	999.175	1463.1
303.15 K, x2 = 0	998.418	1514.1
303.15 K, x2 = 0.1	998.382	1509
303.15 K, x2 = 0.2	998.283	1503.9
303.15 K, x2 = 0.3	998.2	1498.2
303.15 K, x2 = 0.4	998.02	1492.5
303.15 K, x2 = 0.5	997.617	1484.3
303.15 K, x2 = 0.6	997.284	1477.4
303.15 K, x2 = 0.7	996.675	1468
303.15 K, x2 = 0.8	996.1	1458.5
303.15 K, x2 = 0.9	995.436	1448.3
308.15 K, x2 = 0	994.987	1500.2
308.15 K, x2 = 0.1	994.902	1494.9
308.15 K, x2 = 0.2	994.756	1489.6
308.15 K, x2 = 0.3	994.626	1483.8
308.15 K, x2 = 0.4	994.403	1478
308.15 K, x2 = 0.5	993.965	1469.7
308.15 K, x2 = 0.6	993.596	1462.7
308.15 K, x2 = 0.7	992.955	1453.3
308.15 K, x2 = 0.8	992.352	1443.8
308.15 K, x2 = 0.9	991.664	1433.7
313.15 K, x2 = 0	991.528	1486.3
313.15 K, x2 = 0.1	991.39	1480.8
313.15 K, x2 = 0.2	991.196	1475.3
313.15 K, x2 = 0.3	991.02	1469.3
313.15 K, x2 = 0.4	990.753	1463.5
313.15 K, x2 = 0.5	990.276	1455.1
313.15 K, x2 = 0.6	989.874	1448
313.15 K, x2 = 0.7	989.201	1438.5
313.15 K, x2 = 0.8	988.572	1429.1
313.15 K, x2 = 0.9	987.858	1419
318.15 K, x2 = 0	988.035	1472.3
318.15 K, x2 = 0.1	987.845	1466.5
318.15 K, x2 = 0.2	987.595	1460.6
318.15 K, x2 = 0.3	987.379	1454.9
318.15 K, x2 = 0.4	987.07	1449
318.15 K, x2 = 0.5	986.554	1440.5
318.15 K, x2 = 0.6	986.118	1433.3
318.15 K, x2 = 0.7	985.412	1423.9
318.15 K, x2 = 0.8	984.756	1414.3
318.15 K, x2 = 0.9	984.01	1404.4
323.15 K, x2 = 0	984.506	1458.3
323.15 K, x2 = 0.1	984.262	1452.5
323.15 K, x2 = 0.2	983.961	1446.2
323.15 K, x2 = 0.3	983.701	1440.4
323.15 K, x2 = 0.4	983.35	1434.3
323.15 K, x2 = 0.5	982.795	1425.8
323.15 K, x2 = 0.6	982.326	1418.6
323.15 K, x2 = 0.7	981.586	1409.1
323.15 K, x2 = 0.8	980.82	1399.6
323.15 K, x2 = 0.9	980.034	1390.1
